SMILES strings stand for the structures. ≈ marks a conversion by molar mass, not a printed value. Calls of active or inactive are those of the source. No cut-off for these calls is given here.

In one experiment the test system is CEM-SS. Description: Cytotoxicity against human CEM-SS cells. Format: cell-based.
Experiment [1] deals with Human immunodeficiency virus 1. Briefly: Antiviral activity against HIV1. Format: functional, organism-based.

`CC(C)=CCc1c(O)cc2oc3c(c(=O)c2c1O)C(C=C(C)C)Oc1cc(O)ccc1-3` (centres undefined) [ISOCYCLOMULBERRIN] showed a concentration for half-maximal inhibition (IC50) with CEM-SS of 17 µg/mL (≈ 40.4 µM). The same compound yielded an EC50 in experiment [1] of 7.5 µg/mL (≈ 17.8 µM).
Compound `CC(C)=CCc1c(O)c(CC=C(C)C)c2oc3c(O)ccc(O)c3c(=O)c2c1O` [GARTANIN] displayed an IC50 with CEM-SS of 5.3 µg/mL (≈ 13.4 µM). Moreover, in experiment [1], the outcome was inactive.
For the compound `C=CC(C)(C)c1c(O)c(CC=C(C)C)c2oc3c(O)c(O)ccc3c(=O)c2c1O` [MACLURAXANTHONE C], half-maximal inhibition with CEM-SS (IC50) was put at 3.7 µg/mL (≈ 9.33 µM). It took 1.3 µg/mL (≈ 3.28 µM) to reach a half-maximal effect in experiment [1] (EC50).
In the case of `CC(C)=CCc1c(O)c(CC=C(C)C)c2oc3c(O)cccc3c(=O)c2c1O` [8-DEOXYGARTANIN], in the experiment with CEM-SS, it took 4.9 µg/mL (≈ 12.9 µM) to reach half-maximal inhibition (IC50). In addition, in experiment [1], the result was inactive.
The matching figures for `CC(C)=CCc1c(-c2ccc(O)cc2O)oc2cc3c(c(O)c2c1=O)CCC(C)(C)O3` [DIHYDROCUDRAFLAVONE B]: 12 µg/mL (≈ 28.4 µM) and “inactive”.
The matching figures for `CC(C)=CCc1c(O)cc2oc(-c3ccc(O)cc3O)c(CC=C(C)C)c(=O)c2c1O` [CUDRAFLAVONE C]: 5 µg/mL (≈ 11.8 µM) and “inactive”.
`C=CC(C)(C)c1c(O)c(CC=C(C)C)c2oc3cc(O)c(O)cc3c(=O)c2c1O` [MACLURAXANTHONE B]: the IC50 with CEM-SS turned out to be 2.2 µg/mL (≈ 5.55 µM). Moreover, in experiment [1], it took 1 µg/mL (≈ 2.52 µM) to reach a half-maximal effect (EC50).

These data come from ChEMBL document CHEMBL1155627, “HIV-Inhibitory prenylated xanthones and flavones from Maclura tinctoria” (J Nat Prod, 2000).
